Measured values taken from patent US7713994B2 (Wyeth LLC, priority 2005, dated 2010).

Columns and labels:
MCF-7 = assay: Cytotoxicity assay (SRB), MCF-7; type: cell-based; details: Homo sapiens, MCF7, 72 h, MCF-7 cells, 3 days, SRB; read-out: In Vitro Cellular Activity IC50 MCF-7
Outline: (§1)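 Overnight-seeded monolayers (4000–12000 cells/well by line) receive compound in 5% FBS medium at 37 °C, 7% CO2. After 3 d, or 6 d for BT474, cellular protein is fixed with cold TCA, stained with SRB and read at 540 nm against untreated wells.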

cyclin B/CDK1 enzyme = target: T1, cyclin B/CDK1 enzyme (Homo sapiens, UniProt P06493); assay: CDK1 ELISA kinase assay (phospho-Rb ser 795 detection); type: biochemical; details: In Vitro Enzyme Assay, cyclin B/CDK1, read-out: CDK1 IC50
T1 construct: purchased New England BioLabs; host or cells: Sf9 insect cells, recombinant baculovirus
Outline: (§2)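 Inhibition was derived from A450 relative to control wells lacking compound, following an anti-phospho-Rb Ser795 sandwich of HRP detection. The reactions combined coated GST-Rb fragment, 200 μM ATP and baculovirus-expressed cyclin/CDK enzymes, incubated for 1 h at 30° C.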

LoVo = assay: Cytotoxicity assay (SRB), LoVo; type: cell-based; details: Homo sapiens, LoVo, 72 h, LoVo cells, 3 days, SRB; read-out: In Vitro Cellular Activity IC50 LOVO
Outline: as §1

cyclin D1/cdk 4 enzyme = target: T2, cyclin D1/cdk 4 enzyme (Homo sapiens, UniProt P11802); assay: CDK4 ELISA kinase assay (phospho-Rb ser 795 detection); type: biochemical; details: In Vitro Enzyme Assay, cyclin D1/cdk 4, read-out: CDK4 IC50
T2 construct: made in house; host or cells: Sf9 insect cells, recombinant baculovirus
Outline: as §2

BT474 = assay: Cytotoxicity assay (SRB), BT474; type: cell-based; details: Homo sapiens, BT-474, 144 h, BT474 cells, 6 days, SRB; read-out: In Vitro Cellular Activity IC50 BT474
Outline: as §1

cyclin E/CDK2 enzyme = target: T3, cyclin E/CDK2 enzyme (Homo sapiens, UniProt P24941); assay: CDK2 ELISA kinase assay (phospho-Rb ser 795 detection); type: biochemical; details: In Vitro Enzyme Assay, cyclin E/CDK2, read-out: CDK2 IC50
T3 construct: made in house; host or cells: Sf9 insect cells, recombinant baculovirus
Outline: as §2

HCT-116 = assay: Cytotoxicity assay (SRB), HCT-116; type: cell-based; details: Homo sapiens, HCT-116, 72 h, HCT116 cells, 3 days, SRB; read-out: In Vitro Cellular Activity IC50 HCT116
Outline: as §1

T2 sequence (P11802 whole entry, species assumed): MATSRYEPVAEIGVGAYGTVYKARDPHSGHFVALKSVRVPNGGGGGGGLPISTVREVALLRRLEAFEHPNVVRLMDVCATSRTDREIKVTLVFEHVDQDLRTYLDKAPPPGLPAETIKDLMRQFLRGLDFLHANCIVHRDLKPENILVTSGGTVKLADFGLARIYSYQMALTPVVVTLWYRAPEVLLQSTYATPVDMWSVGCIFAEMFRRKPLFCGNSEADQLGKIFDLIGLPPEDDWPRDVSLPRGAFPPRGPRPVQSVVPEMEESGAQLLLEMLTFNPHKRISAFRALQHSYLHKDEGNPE
T2 sequence (P24385 whole entry partner, species assumed): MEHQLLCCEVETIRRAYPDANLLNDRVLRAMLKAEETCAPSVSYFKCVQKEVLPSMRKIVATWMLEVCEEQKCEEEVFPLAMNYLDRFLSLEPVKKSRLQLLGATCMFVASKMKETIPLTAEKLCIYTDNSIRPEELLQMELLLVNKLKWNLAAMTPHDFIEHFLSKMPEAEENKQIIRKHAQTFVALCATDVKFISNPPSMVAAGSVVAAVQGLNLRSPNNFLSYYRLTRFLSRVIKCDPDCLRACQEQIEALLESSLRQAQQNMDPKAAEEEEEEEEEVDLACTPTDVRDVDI
T1 sequence (P06493 whole entry): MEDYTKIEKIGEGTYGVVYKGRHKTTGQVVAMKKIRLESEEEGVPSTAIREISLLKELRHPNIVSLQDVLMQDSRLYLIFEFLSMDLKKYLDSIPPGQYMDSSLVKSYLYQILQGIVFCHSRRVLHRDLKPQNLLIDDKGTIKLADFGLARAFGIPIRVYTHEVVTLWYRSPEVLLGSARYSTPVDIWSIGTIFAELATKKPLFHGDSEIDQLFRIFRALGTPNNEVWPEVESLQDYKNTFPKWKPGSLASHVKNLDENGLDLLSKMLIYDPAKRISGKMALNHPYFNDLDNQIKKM
T1 sequence (P14635 whole entry partner): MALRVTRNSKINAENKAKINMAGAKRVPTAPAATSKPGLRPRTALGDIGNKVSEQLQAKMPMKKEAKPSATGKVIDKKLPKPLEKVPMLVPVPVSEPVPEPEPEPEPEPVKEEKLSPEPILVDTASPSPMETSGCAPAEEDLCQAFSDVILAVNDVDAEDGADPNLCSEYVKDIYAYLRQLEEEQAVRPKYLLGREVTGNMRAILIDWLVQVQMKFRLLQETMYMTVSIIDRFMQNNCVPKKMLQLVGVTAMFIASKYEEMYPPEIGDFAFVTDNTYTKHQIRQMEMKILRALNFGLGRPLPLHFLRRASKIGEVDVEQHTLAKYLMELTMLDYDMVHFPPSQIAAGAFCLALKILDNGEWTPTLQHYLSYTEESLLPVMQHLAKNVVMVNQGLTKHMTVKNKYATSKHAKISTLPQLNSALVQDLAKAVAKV

IC50 (cyclin B/CDK1 enzyme)	IC50 (cyclin D1/cdk 4 enzyme)	IC50 (cyclin E/CDK2 enzyme)	SMILES	IC50 (MCF-7)	IC50 (LoVo)	IC50 (BT474)	IC50 (HCT-116)
32.4 µM	0.11 µM	4.5 µM	O=C1NC(=O)c2ccc(I)cc2/C1=C/NCc1cc(O)c(OCCN2CCCC2)cn1 [Example 522, 4-({[4-Hydroxy-5-(2-pyrrolidin-1-yl-ethoxy)-pyridin-2-ylmethyl]-amino}-methylene)-6-iodo-4H-isoquinoline-1,3-dione]	0.99 µM	1.19 µM	2.13 µM	1.42 µM
2.1 µM	0.02 µM	0.5 µM	CN(C)CC(=O)Nc1ccc(CN/C=C2\C(=O)NC(=O)c3ccc(I)cc32)cc1O [Example 526, N^1-[2-Hydroxy-4-({[(Z)-(6-iodo-1,3-dioxo-2,3-dihydroisoquinolin-4(1H)-ylidene)methyl]amino}methyl)phenyl]-N^2,N^2-dimethylglycinamide]	3.3 µM	5.6 µM	7.2 µM	2.4 µM
22.4 µM	0.1 µM	5 µM	CCCCn1ccc(CN/C=C2\C(=O)NC(=O)c3ccc(I)cc32)cc1=O [Example 529, (4Z)-6-Iodo-4-({[(1-butyl-2-oxo-1,2-dihydropyridin-4-yl)methyl]amino}methylene)isoquinoline-1,3(2H,4H)-dione]	2.4 µM	1.5 µM	1.2 µM	1.7 µM
6.4 µM	0.03 µM	3.5 µM	CC(C)(C)c1ccc2c(c1)/C(=C/NCc1ccn(-c3ccoc3)c(=O)c1)C(=O)NC2=O [Example 533, (4Z)-6-tert-Butyl-4-[({[1-(3-furyl)-2-oxo-1,2-dihydropyridin-4-yl]methyl}amino)methylene]isoquinoline-1,3(2H,4H)-dione]	1.5 µM	0.73 µM	0.49 µM	1.5 µM
> 50 µM	0.09 µM	> 50 µM	CC(C)(C)c1ccc2c(c1)/C(=C/NCc1cc(O)c(-c3ccoc3)cc1F)C(=O)NC2=O [Example 534, 6-tert-Butyl-4-[(2-fluoro-4-furan-3-yl-5-hydroxy-benzylamino)-methylene]-4H-isoquinoline-1,3-dione]	2.6 µM	1.2 µM	0.73 µM	1.6 µM
> 50 µM	0.02 µM	3.1 µM	O=C1NC(=O)c2ccc(C3CCCC3)cc2/C1=C/NCc1ccc(-c2ccoc2)c(O)c1 [Example 536, 6-Cyclopentyl-4-[(4-furan-3-yl-3-hydroxy-benzylamino)-methylene]-4H-isoquinoline-1,3-dione]	2.1 µM	0.51 µM	0.43 µM	1.1 µM
18.5 µM	5.5 µM	30.4 µM	CCN(CC)Cc1ccc(NC=C2C(=O)NC(=O)c3ccccc32)cc1 [Example 574, 4-[(4-Diethylaminomethyl-phenylamino)-methylene]-4H-isoquinoline-1,3-dione]	14 µM	29.8 µM	10.6 µM	10.3 µM
11.8 µM	9.2 µM	> 50 µM	CCCN(Cc1ccc(NC=C2C(=O)NC(=O)c3ccccc32)cc1)CC1CC1 [Example 575, 4-({4-[(Cyclopropylmethyl-propyl-amino)-methyl]-phenylamino}-methylene)-4H-isoquinoline-1,3-dione]	20.3 µM	21.8 µM	28.1 µM	16.6 µM
13.8 µM	7.5 µM	39.8 µM	O=C1NC(=O)c2ccccc2/C1=C/Nc1ccc(CN2CCCC2)cc1 [Example 576, 4-[(4-Pyrrolidin-1-ylmethyl-phenylamino)-methylene]-4H-isoquinoline-1,3-dione]	7.6 µM	19.1 µM	7.4 µM	6.3 µM
17.7 µM	34 µM	> 50 µM	CN(Cc1ccc(NC=C2C(=O)NC(=O)c3ccccc32)cc1)C1CCCCC1 [Example 577, 4-({4-[(Cyclohexyl-methyl-amino)-methyl]-phenylamino}-methylene)-4H-isoquinoline-1,3-dione]	20.1 µM	14.4 µM	24.5 µM	9.6 µM
20.3 µM	23.2 µM	25.4 µM	O=C1NC(=O)c2ccccc2C1=CNCc1ccc(NS(=O)(=O)CC(F)(F)F)cc1 [Example 591, 2,2,2-Trifluoro-ethanesulfonic acid (4{[(1,3-dioxo-2,3-dihydro-1H-isoquinolin-4-ylidenemethyl)-amino]-methyl}-phenyl)-amide]	40 µM	> 50 µM	36.4 µM	41.5 µM
44.5 µM	> 50 µM	> 50 µM	CC(C)CC(=O)Nc1ccc(CN/C=C2\C(=O)NC(=O)c3ccccc32)cc1 [Example 593, N-(4{[(1,3-Dioxo-2,3-dihydro-1H-isoquinolin-4-ylidenemethyl)-amino]-methyl}-phenyl)-3-methyl-butyramide]	25.9 µM	35.8 µM	26.6 µM	13.8 µM
18.9 µM	0.2 µM	6.7 µM	CCN(CC)c1ccc2c(c1)C(=CNCc1ccc(O)c(O)c1)C(=O)NC2=O [Example 608, 6-Diethylamino-4-[(3,4-dihydroxy-benzylamino)-methylene]-4H-isoquinoline-1,3-dione]	10.7 µM	10.4 µM	11.6 µM	11.4 µM
11.8 µM	0.02 µM	12.1 µM	O=C1NC(=O)c2ccc(N3CCCC3)cc2/C1=C/NCc1ccc(O)c(O)c1 [Example 609, 4-[(3,4-Dihydroxy-benzylamino)-methylene]-6-pyrrolidin-1-yl-4H-isoquinoline-1,3-dione]	13.6 µM	19.1 µM	18.3 µM	30.6 µM
3.5 µM	0.38 µM	2.5 µM	O=C1NC(=O)c2ccc(N3Cc4ccccc4C3)cc2C1=CNCc1ccc(O)c(O)c1 [Example 610, 6-(1,3-Dihydro-isoindol-2-yl)-4-[(3,4-dihydroxy-benzylamino)-methylene]-4H-isoquinoline-1,3-dione]	12.2 µM	11.1 µM	27 µM	9.9 µM
18.1 µM	12.9 µM	18.1 µM	O=C1NC(=O)c2ccc(N(CCC(F)(F)F)CCC(F)(F)F)cc2C1=CNCc1ccc(O)c(O)c1 [Example 611, 6-[Bis-(3,3,3-trifluoro-propyl)-amino]-4-[(3,4-dihydroxy-benzylamino)-methylene]-4H-isoquinoline-1,3-dione]	13.2 µM	16.1 µM	23.6 µM	14.1 µM
> 50 µM	16.5 µM	21.3 µM	CC1CCCN1Cc1ccc(NC=C2C(=O)NC(=O)c3ccccc32)cc1 (centres unmarked) [Example 617, 4-{[4-(2-Methyl-pyrrolidin-1-ylmethyl)-phenylamino]-methylene}-4H-isoquinoline-1,3-dione]	11.2 µM	14 µM	18.5 µM	7.6 µM
32.5 µM	0.05 µM	5.8 µM	O=C1NC(=O)c2ccc(-c3ccccc3)cc2C1=CNCc1ccc(O)c(O)c1 [Example 620, 4-[(3,4-Dihydroxy-benzylamino)-methylene]-6-phenyl-4H-isoquinoline-1,3-dione]	11 µM	11.5 µM	15.5 µM	11.7 µM
8.1 µM	0.01 µM	4.1 µM	O=C1NC(=O)c2ccc(-c3ccco3)cc2C1=CNCc1ccc(O)c(O)c1 [Example 621, 4-[(3,4-Dihydroxy-benzylamino)-methylene]-6-furan-2-yl-4H-isoquinoline-1,3-dione]	6.8 µM	8.7 µM	3.5 µM	9.7 µM
31 µM	0.2 µM	17.3 µM	N#CCc1ccc(NC=C2C(=O)NC(=O)c3ccc(-c4ccc[nH]4)cc32)cc1 [Example 630, (4-{[1,3-Dioxo-6-(1H-pyrrol-2-yl)-2,3-dihydro-1H-isoquinolin-4-ylidenemethyl]-amino}-phenyl)-acetonitrile]	20 µM	45.8 µM	45.3 µM	26 µM
